Data from patent US20050095226A1, “Down-regulation of DNA repair to enhance sensitivity to p53-mediated suppression” (priority 1996, published 2005).
“Also recorded” adds a separate entry of the source.

What was measured:
[1] = tested on: 9L rat glioblastoma cells; assay: Cell viability assay (MTS) in 9L rat glioblastoma cells; type: cell-based
Experimental: (§1) T98G glioblastoma cells were obtained from ATCC and cultured at 37° C. 10% CO2 in Dulbecco's Modified Eagles Medium supplemented with 10% newborn calf serum. 9L rat glioblastoma cells were obtained from Carol Cruse (University of Colorado) and cultured at 37° C. in 10% CO2 in Dulbecco's Modified Eagles Medium supplemented with 10% fetal Calf serum. The T98G-LHCmjun clone (termed T98G mutant jun or T98G-mjun), as well as control empty vector modified clone (termed T98GLHCX) were obtained from Dr. Dan Mercola (Sidney Kimmel Cancer Center) and were cultured in the same way as were T98G cells except that 100 μg/ml hygromycin was added to the culture medium. The 98G-mjun is stably modified to express a dominant negative mutant of c-jun (the mutant was obtained by site-directed mutagenesis by M. Karin and colleagues and is described by Smeal et al. (1991). Mutant jun has ser→ala substitutions at positions 63 and 73, two sites of DNA damage-induced phosphorylation, and can therefore not be phosphorylated at these sites. 9LpCEPp53 (or 9LpCEP4, control) were cultured in the same way at 9L cells except that 50 μg/ml hygromycin was added to the medium.
Rat 9L glioblastoma cells express p53 mutated at codon 277 (J. Neuroonal. 19:259-268, 1994.) 9LpCEPp53 (or 9LpCEP4) were obtained by transducing 5×10^5 9L cells with 15 μG of pCEPp53 (or pCEP4) using Lipofectamine (GIBCO/BRL, Gaithersberg, Md.) following the manufacturer's instructions. Clones were selected in 50 μg/ml hygromycin and characterized for wild-type p53 expression by immunoprecipitation (immunoprecipitation procedure described in: Gjerset et al., Molec. Carcinog. 5:190-198, 1992) using the 1801 anti-p53 antibody specific for human p53 (p-Ab-2, Oncogene Science, Uniondale, N.Y.), and by the PG13 functional assay described above. pCEPp53 was derived by inserting the human wild-type p53 cDNA into the multicloning site of pCEP4.
(§2) Cells were infected when they were at 80% confluence with either 100 pfu per cell overnight in DMEM containing 2% heat-inactivated FBS (for T98G and clones derived from T98G) or at 50 pfu per cell for 2 hours (9L cells). The efficiency of infection was determined by staining a sample of the β-gal virus-infected cells at 48 hrs post-infection as described (Dannenerg and Saga, 1981).
(§3) Viability assays were performed in 96 wells plates 6-7 days after plating. Cells were plated at a starting cell number per well of 1000. Triplicate or quadruplicate wells were set up for each assay point. […] For cisplatin treatment, triplicate or quadruplicate wells were exposed for 1 hour to various concentrations of cisplatin (Platinol™), and then incubated in the absence of cisplatin for 7 days, during which time control (untreated) wells were in exponential phase growth. Viable cell number was based on the bioconversion of the tetrazolium compound, MTS, into formazan (Promega, Celltiter96™Aqeous), as determined by absorbance at […] using an ELISA reader. For 3-aminobenzamide (ABZ) treatment, triplicate or quadruplicate wells were treated with either 5 mM ABZ or 10 mM ABX. Fresh ABZ was added every two days and viability was scored as described above at 6 days. Assays involving the synthetic retinoid SR11220 were performed in the presence of charcoal-treated fetal bovine serum. Medium was replaced every two days with medium containing fresh retinoid.

T98G parental cells = assay: PCR stop assay for DNA damage (2.7 Kb HPRT fragment) in T98G parental cells; type: cell-based, human
Experimental: (§4) This assay has been described (Oshita and Saijo, 1994; Jannerwein and Eastman, 1991). The assay is based on the principle that every DNA lesion, including adducts produced by cisplatin, can potentially block the progression of the Taq polymerase and decrease the yield of a given PCR™ product. […] Furthermore, when whole cells are incubated with varying levels of cisplatin, the degree of inhibition of amplification of a specific PCR™ product from DNA purified from these cells, correlates closely with the amount of DNA damage (level of DNA platination) as measured by atomic adsorption (Jannerwein and Eastman, 1991). The following primers (used by Oshita and Saijo, 1994) which amplify a 2.7 Kb fragment of the human hypoxanthine phosphoribosyl transferase (HPRTase) gene were used:
(§5) As an internal control for the efficiency of the PCR™ reaction, a nested 5′ primer which amplifies a 150 bp fragment of the same gene was used:
At the cisplatin levels used to treat the cells, damage to the smaller fragment is undetectable. […] In some experiments, 3-aminobenzamide (10 mM), an inhibitor of ADP ribosylation and DNA repair (see Din et al., 1992) was added during the 6 hour recovery period. […] DNA was washed with 70% EtOH to remove salt, followed by 100% EtOH dried briefly, and resuspended at 1 mg/ml in sterile H2O. Quantitative PCR™ was performed in 50 μl aliquots using 0.5 μg DNA, 50 pmol of forward primer for 2.7 Kb fragment, 50 pmol reverse primer, and 5 pmol of forward primer for the 150 base fragment, 50 mM KCL, 10 nmM Tris pH 8.3, 1.5 mM MgCl2, […], 0.5 μl Tac polymerasse (Perkin Elmer), and 1 pmol radioactively end-labeled reverse primer (labeled with y-^32P-dATP). Amplification conditions were as follows: 1 cycle: 94° C., 1′30; 25 cycles: 94° (1 min)-57° (1 min)-70° (2′30″); 1 cycle:94° (1 min)-57° (1 min)-70° (7′). […] The gel was vacuum-dried for two hours onto filter paper and the PCR™-amplified 2.7 Kb and 150 bp bands were quantitated using an Ambis4000 Radioanalytic Imaging system (Ambis, Inc., San Diego, Calif.).

T47D breast cancer cells = assay: Cell viability assay (MTS) in T47D breast cancer cells; type: cell-based; settings: for cell viability: one hour cisplatin, various concentrations, 7 days post-infection; for viability: 7 days
Experimental: Cells were infected when they were at 80% confluence with either 100 pfu per cell overnight in DMEM containing 2% heat-inactivated FBS (for T98G and clones derived from T98G) or at 50 pfu per cell for 2 hours (9L cells).
as §3

T98G glioblastoma cells = assay: Cell viability assay (MTS) in T98G glioblastoma cells; type: cell-based; settings: for cell viability: 7 days post-treatment
Experimental: as §1, §2, §3

T98G-mutant jun cells = assay: PCR stop assay for DNA damage (2.7 Kb HPRT fragment) in T98G-mutant jun cells; type: cell-based, human; settings: varying concentrations
Experimental: as §4, §5
At the cisplatin levels used to treat the cells, damage to the smaller fragment is undetectable. […] In some experiments, 3-aminobenzamide (10 mM), an inhibitor of ADP ribosylation and DNA repair (see Din et al., 1992) was added during the 6 hour recovery period. […] The gel was vacuum-dried for two hours onto filter paper and the PCR™-amplified 2.7 Kb and 150 bp bands were quantitated using an Ambis4000 Radioanalytic Imaging system (Ambis, Inc., San Diego, Calif.).

Row | Structure (SMILES) | viability ([1]; 9L cells stably expressing human wild-type p53 (pCEPp53), 5 mM 3-aminobenzamide for 6 days) | viability ([1]; 9L cells stably expressing human wild-type p53 (pCEPp53), 10 mM 3-aminobenzamide for 6 days) | growth inhibition ([1]; 9L cells stably expressing only control vector pCEP4, both 5 mM and 10 mM 3-aminobenzamide, 6 days) | DNA damage (percentage of control PCR signal) (T98G parental cells; 10 mM 3-aminobenzamide, six hours post treatment with varying concentrations of cisplatin) | viability ([1]; 9L cells infected with p53 adenovirus, compared to βgal adenovirus, 50 μM cisplatin one day later, measured seven days after cisplatin) | cell viability ([1]; 9L cells stably modified with wild-type p53 vector pCEPp53, compared to control vector pCEP4, one hour cisplatin, various concentrations, 7 days post-treatment) | cell viability (T47D breast cancer cells; T47D cells infected with wild-type p53 adenovirus, two days post-infection) | viability (T47D breast cancer cells; T47D cells infected with βgal adenovirus control, 10^−8 M SR11220, 10 μM cisplatin or combination) | cell viability (T47D breast cancer cells; control T47D cells infected with βgal-adenovirus) | viability (T47D breast cancer cells; p53 adenovirus infected T47D cells, 10 μM cisplatin, 1 hour exposure) | cell growth / viability (T98G glioblastoma cells; T98G cells infected with wild-type p53 adenovirus, one hour cisplatin, various concentrations, 7 days post-infection) | growth rate (T98G glioblastoma cells; T98G cells infected with βgal adenovirus, increasing levels of cisplatin, 7 days post-infection) | cell viability (T98G glioblastoma cells; T98G cells stably modified with wild-type p53 vector pLp53RNL, one hour cisplatin, increasing doses) | cell viability (T98G glioblastoma cells; control T98G cells stably modified with vector only, pLNRL, one hour cisplatin) | repair of DNA damage (T98G-mutant jun cells; six hours after 1.5 hours cisplatin) | DNA damage (percentage of control PCR signal) (T98G-mutant jun cells; zero hour after 1.5 hours cisplatin) | DNA damage (percentage of control PCR signal) (T98G parental cells; six hours after 1.5 hour cisplatin treatment, no 3-aminobenzamide) | DNA damage (percentage of control PCR signal) (T98G parental cells; zero hours after 1.5 hour treatment with varying concentrations of cisplatin)
1 | NC(=O)c1cccc(N)c1 [3-aminobenzamide] | low viability | even lower viability | resistant to growth inhibition | significant DNA damage |  |  |  |  |  |  |  |  |  |  |  |  |  | 
2 | N.N.[Cl][Pt][Cl] [cisplatin] |  |  |  |  | significant decrease in viability | significantly reduced the viability | decreased with increasing doses of cisplatin | not reduced significantly | significantly more refractory | an even greater effect on the reduction in viability | growth suppression in a dose dependent manner | slightly reduce growth rate | reduced in a dose dependent manner | more resistant | not able to be repaired | high levels of DNA damage | partially reduced; also recorded: no significant DNA damage remained | considerable DNA damage
